Source: BindingDB's records for PubMed 7969084 (Merck Sharp and Dohme Research Laboratories, 1994)

Target: T1, Cholecystokinin (Sus scrofa, UniProt P01356)
T1 sequence (P01356 whole entry): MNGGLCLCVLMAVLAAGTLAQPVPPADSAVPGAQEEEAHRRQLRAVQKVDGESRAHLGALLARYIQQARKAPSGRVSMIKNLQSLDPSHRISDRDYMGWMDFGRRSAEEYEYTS

`Cc1cccc(NC(=O)N[C@@H]2N=C(N3CCCCCC3)c3ccccc3N(C)C2=O)c1` [L-738416] was tested, and the Ki was 1.2 nM.
